Like-named read-outs stand apart in the source and are kept apart here.
What was measured:
[1] = tested on: FOXM1^A2 mRNA and FOXM1^BC mRNA; assay: Splicing assay (FOXM1), qPCR of isoform mRNAs; type: cell-based; conditions: for EC50: read-out: Splice EC50 (nM) FoxM1 A mRNA increase (exon excluded)
Outline: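 RT-qPCR read-out after 24 h compound exposure at 37° C., 0.2% DMSO, top dose 10 μM with 4-fold 8-point dilutions, 20,000 cells per well. Copy numbers from plasmid standard curves, PPIA-normalized, expressed as isoform ratio relative to DMSO.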

[2] = tested on: A-673 cells; assay: Cell viability, crystal violet staining; type: cell-based; conditions: Homo sapiens
Outline: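 Readout is absorbance at 570 nm of crystal violet, taken up in 0.1 M sodium citrate in 50% ethanol after staining with 0.5% dye in 25% methanol. Plates held 5×10^3 cells per well, and compounds were added one day after seeding for 72 hours. Data are relative to vehicle, mean±SE.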

[3] = 24 h, MDA-MB-231-luc cells, 24 hours, table does not say EC50 or IC50, read-out: FOXM1
[4] = 24 h, U-118 cells, 24 hours, table does not say EC50 or IC50, read-out: FOXM1
[5] = FoxM1 BC mRNA decrease (exon included), read-out: Splice IC50 (nM) FoxM1 BC mRNA decrease (exon included)
[6] = Homo sapiens, A673, 24 h, A-673 cells, 24 hours, table does not say EC50 or IC50, read-out: FOXM1
[7] = Homo sapiens, A-375, 24 h, A-375 cells, 24 hours, table does not say EC50 or IC50, read-out: FOXM1
[8] = Homo sapiens, BXPC-3, 24 h, BxPC-3 cells, 24 hours, table does not say EC50 or IC50, read-out: FOXM1
[9] = Homo sapiens, Z-138, 24 h, Z-138 cells, 24 hours, table does not say EC50 or IC50, read-out: FOXM1
[10] = A673, cell viability, read-out: A-673 IC50 (nM) Cell viability
[11] = A673, read-out: A-673 cell viability (IC50)

Structure (SMILES)	IC50 [1, 3] [nM]	IC50 [1, 4] [nM]	IC50 [1, 5] [nM]	IC50 [1, 6] [nM]	IC50 [1, 7] [nM]	IC50 [1, 8] [nM]	IC50 [1, 9] [nM]	EC50 [1] [nM]	IC50 [2, 10] [nM]	IC50 [2, 11] [nM]	further results
CN(c1ccc(-c2ccc(-c3cn[nH]c3)cc2O)nn1)[C@@H]1C[C@H]2CCC[C@@H](C1)N2 [compound 160, 2-(6-(((1R,3s,5S)-9-azabicyclo[3.3.1]nonan-3-yl)(methyl)amino)pyridazin-3-yl)-5-(1H-pyrazol-4-yl)phenol]	11 to 100	1 to 10	< 10	1 to 10	< 1	11 to 100	1 to 10	< 10	< 10	≤ 5	–
CN(c1ccc(-c2ccc(-c3cn[nH]c3)cc2O)nn1)[C@H]1C[C@]2(C)CC[C@](C)(C1)N2 [compound 151, 2-(6-(((1R,3s,5S)-1,5-dimethyl-8-azabicyclo[3.2.1]octan-3-yl)(methyl)amino)pyridazin-3-yl)-5-(1H-pyrazol-4-yl)phenol]	–	–	< 10	1 to 10	1 to 10	–	–	< 10	< 10	≤ 5	IC50 ([1]; Homo sapiens, Hep3B, 24 h, Hep-3B cells, 24 hours, table does not say EC50 or IC50, read-out: FOXM1): 101 to 200 nM; IC50 ([1]; Homo sapiens, K562, 24 h, K-562 cells, 24 hours, table does not say EC50 or IC50, read-out: FOXM1): 11 to 100 nM; IC50 ([1]; Homo sapiens, MDA-MB-468, 24 h, MDA-MB-468 cells, 24 hours, table does not say EC50 or IC50, read-out: FOXM1): 11 to 100 nM; IC50 ([1]; Homo sapiens, NCI-H358, 24 h, NCI-H358 cells, 24 hours, table does not say EC50 or IC50, read-out: FOXM1): 1 to 10 nM; IC50 ([1]; Homo sapiens, PANC-1, 24 h, PANC-1 cells, 24 hours, table does not say EC50 or IC50, read-out: FOXM1): 101 to 200 nM; IC50 ([1]; Homo sapiens, PC-3, 24 h, PC-3 cells, 24 hours, table does not say EC50 or IC50, read-out: FOXM1): 11 to 100 nM; IC50 ([1]; Homo sapiens, U-87 MG, 24 h, U-87MG cells, 24 hours, table does not say EC50 or IC50, read-out: FOXM1): 11 to 100 nM
CN(c1ccc(-c2ccc(-c3cn[nH]c3)cc2O)nn1)[C@@H]1C[C@H]2CC[C@@H](C1)N2 [compound 138, 2-(6-(((1R,3s,5S)-8-azabicyclo[3.2.1]octan-3-yl)(methyl)amino)pyridazin-3-yl)-5-(1H-pyrazol-4-yl)phenol]	11 to 100	11 to 100	10 to 100	11 to 100	1 to 10	101 to 200	11 to 100	10 to 100	10 to 100	–	IC50 ([1]; Homo sapiens, DU-145, 24 h, DU-145 cells, 24 hours, table does not say EC50 or IC50, read-out: FOXM1): 11 to 100 nM; IC50 ([1]; Homo sapiens, Daoy, 24 h, Daoy cells, 24 hours, table does not say EC50 or IC50, read-out: FOXM1): 11 to 100 nM; IC50 ([1]; Homo sapiens, G-401, 24 h, G-401 cells, 24 hours, table does not say EC50 or IC50, read-out: FOXM1): 101 to 200 nM; IC50 ([1]; Homo sapiens, SH-SY5Y, 24 h, SH-SY5Y cells, 24 hours, table does not say EC50 or IC50, read-out: FOXM1): 11 to 100 nM; IC50 ([1]; Homo sapiens, TT, 24 h, T.T cells, 24 hours, table does not say EC50 or IC50, read-out: FOXM1): 11 to 100 nM
